A short description of data set [1]: Blood cell count of pDKO mice. It counts as in vivo. The conditions noted are these: for % lymphocyte / % neutrophil / Red Blood Cells / White Blood Cells / Hematocrit: pDKO mice, at sacrifice; for White Blood Cells: Means ± SEM, n = 4; for Hematocrit: in % (unit assumed). As to the method:
(§1) In vivo studies. Experiments conducted in mice were performed in accordance with the Institutional Animal Care and Use Committee of University of California, Irvine following a power analysis conducted in consultation with the Biostatistics Shared Resource of Chao Family Comprehensive Cancer Center at UCI. Xenografts were produced by injecting 5 million cells subcutaneously in the flank of 10-16 week-old male or female NSG mice. Prostate isografts were produced in the same manner but in male 6-8 wk old C57BL/6 mice. Once tumors reached 100 mm^3, SH-BC-893 was administered by intraperitoneal (i.p.) injection or oral gavage as indicated. Tumor volume was calculated using the formula, volume (mm^3)=length [mm]×(width [mm])^2×0.52; BLI was measured using an IVIS imaging system (Xenogen). To generate pDKO mice on the C57BL6 background, Pten^flox mice (stock No. 0045597) and p53^flox mice (stock No. 008462) were obtained from the Jackson Laboratory and PB-Cre4 mice (strain #01XF5) were obtained from the NCI-Frederick Mouse Repository. Age-matched cohorts of pDKO males were generated by in vitro fertilization executed with the assistance of the Transgenic Mouse Facility at UC Irvine. Treatment was begun at 6-7 wks of age. […] Tumor samples were processed and imaged by the Pathology Research Services Core Facility at UC Irvine. Blood chemistry was analyzed by IDEXX BioResearch and complete blood counts were performed using a Hemavet hematology system.

Another data set relates to bound NADH fraction. Put plainly: NADH fluorescence lifetime imaging (FLIM). It counts as cell-based. The conditions noted are these: mimicked amino acid and glucose starvation. The source says:
Cells adapt to nutrient limitation by increasing oxidative phosphorylation. The relative rate of glycolysis and oxidative phosphorylation can be monitored by measuring the fluorescence lifetime of the reduced form of nicotinamide adenine dinucleotide (NADH). A higher ratio of protein-bound to free NADH (increased lifetime) correlates with increased oxidative phosphorylation in multiple cell types both in vitro and in vivo. Oligomycin and rotenone/antimycin A are molecules known in the field to induce glycolysis, whereas 2-deoxy-glucose (2DG) is an inhibitor of glycolysis and subsequently increases oxidative phosphorylation. Starvation of cells by removing access to glucose and amino acids is also known to increase oxidative phosphorylation. […]
NADH Fluorescence Lifetime Imaging Microscopy (FLIM). […] The excitation wavelength was 740 nm and a dichroic filter (690 nm) was used to separate the fluorescence signal from the laser light. […] The fluorescence was detected by a hybrid detector (HPM-100 Hamamatsu). […] The FLIM system was calibrated during each imaging session by measuring the fluorescence decay of fluorescein with a single exponential of 4.04 nsec. […] Data was processed by the SimFCS software developed at the Laboratory of Fluorescence Dynamics at UCI. […]

Data set [2] deals with autochthonous prostate tumor (pDKO). Put plainly: pDKO autochthonous prostate cancer mouse model. It counts as in vivo. As to the method: To determine the sensitivity, SH-BC-893 was evaluated in a validated genetically-engineered mouse model for invasive castration-resistant prostate cancer that lacks p53 and PTEN expression exclusively in the prostate (pDKO) (Wu X, et al. Am J Clin Exp Urol. 2014; 2(2):111-20; Schwarzenböck S, et al. Theranostics. 2012; 2(3):318-330; Chen Z, et al. Nature. 2005; 436(7051):725-730; the disclosures of which are herein incorporated by reference). […] SH-BC-893, however, still produced a phenotype consistent with starvation as the bound NADH fraction increased and cell permeant nutrients protected mPCE cells from death (FIGS. 65A and 65C). Prostate cancer cells depend on exogenous LDL for growth and survival. […] Ceramide and YM201636 both reduced surface LDLr levels, but LDLr still accumulated in different intracellular compartments (FIG. 66A). Consistent with their ability to block lysosomal fusion (FIG. 61), both YM201636 and SH-BC-893 reduced LDL co-localization with Lysotracker Blue (FIGS. 65F and 65G). In keeping with the inhibition of LDL degradation in lysosomes, cellular lipid droplet content was inversely correlated with the extent of vacuolation (FIG. 66B). In summary, sphingolipid-like compounds, such as SH-BC-893, starve slow-growing neoplasms, such prostate cancer, by down-regulating nutrient transporters and blocking lysosomal nutrient generation.
The ability of starvation-inducing sphingolipid-like drugs to affect the growth of slow growing or autochthonous neoplasms was also evaluated. In C57BL/6 mice bearing mPCE subcutaneous isografts, 60 mg/kg SH-BC-893 was given daily by gavage and slowed tumor growth by 60% similar to results with SW620 xenografts dosed with 20 mg/kg i.p. (FIGS. 53G-I and 65I). At 120 mg/kg, SH-BC-893 inhibited prostate tumor growth by more than 90% (FIG. 65I). […] Akt activity was slightly elevated by SH-BC-893 consistent with loss of TORC1-mediated negative feedback. Thus, sphingolipid-like compounds, such as SH-BC-893, are effective against neoplasms with distinct molecular defects and metabolic characteristics.
SH-BC-893 produces equivalent transporter loss and vacuolation in normal and transformed cells and therefore also limits the access of normal cells to nutrients (FIGS. 51C, 51E, 56B and 56C). […] The lack of toxicity to normal tissues is consistent with the finding that non-transformed cells can adapt to nutrient stress that triggers a bioenergetic crisis in less metabolically flexible tumor cells (FIGS. 53D and 53E).
as §1

Where [3] appears, read: mice treated with 120 mg/kg for 11 weeks.

Take `CCCCCCCCc1ccc([C@H]2CCN[C@@H]2CO)cc1.Cl` [Compound 5, (2S,3R)-2-(hydroxymethyl)-3-(4-octylphenyl)Pyrrolidinium chloride]: the “complete blood counts (in words)” value in data set [1] (setting [3]) is listed as “normal complete blood counts”. Also, in data set [1] (60 mg/kg), the “% lymphocyte” value was determined as 77 ± 4%, the “% neutrophil” value is reported as 14 ± 3%, the “Red Blood Cells” value is reported as 8 ± 1 M/μL and the “White Blood Cells” value was 5 ± 1 10^3 cells/μL. This molecule also yielded a Hematocrit in data set [1] (60 mg/kg) of 32 ± 5. Further, in data set [1] (120 mg/kg), the “% lymphocyte” value stood at 73 ± 5%, the “% neutrophil” value stood at 19 ± 5%, the “Red Blood Cells” value worked out at 9 ± 1 M/μL and the “White Blood Cells” value was 8 ± 1 10^3 cells/μL. This molecule also returned a Hematocrit in data set [1] (120 mg/kg) of 41 ± 3. For the same molecule, in the data set on bound NADH fraction, the “bound NADH fraction” value is reported as “increasing”. Besides, in data set [2] (setting [3]), the “histopathology of intestinal crypts” value is “normal”. In addition, in data set [2] (pDKO mice), the weight gain entry is “gained less weight than untreated mice”. The “decrease of autochthonous tumor growth” value in data set [2] (pDKO mice, 60 mg/kg) is given as 62%. The “decrease of autochthonous tumor growth” value in data set [2] (pDKO mice, 120 mg/kg) is 82%. The “prostate tumor progression, histology” value in data set [2] (pDKO mice, treated mice exclusively exhibited prostatic intraepithelial neoplasia) was “slowed prostate tumor progression”. Moreover, the “TORC1-dependent ribosomal protein S6 phosphorylation in tumors” value in data set [2] (treated prostate tumors) is given as “reduced”.
